Measurements: patent US11999746B2, “Compounds” (GlaxoSmithKline Intellectual Property Development Limited, priority 2014, dated 2024)
Counter-ions that a name gives are not always drawn.

How the values were obtained:
Lp-PLA2 in human plasma = target: T1, Lp-PLA2 in human plasma (Homo sapiens, UniProt Q13093); test: (3b) Lp-PLA2 human plasma alternative Thio-PAF assay; format: biochemical; conditions: (3b) alternative Thio-PAF assay, pooled human plasma; Examples of 266-412 were tested here; read-out: pIC50 in the Lp-PLA2 human plasma assay (converted)
T1 construct: from tissue; host or cells: pooled human plasma
T1 sequence (Q13093 22-441): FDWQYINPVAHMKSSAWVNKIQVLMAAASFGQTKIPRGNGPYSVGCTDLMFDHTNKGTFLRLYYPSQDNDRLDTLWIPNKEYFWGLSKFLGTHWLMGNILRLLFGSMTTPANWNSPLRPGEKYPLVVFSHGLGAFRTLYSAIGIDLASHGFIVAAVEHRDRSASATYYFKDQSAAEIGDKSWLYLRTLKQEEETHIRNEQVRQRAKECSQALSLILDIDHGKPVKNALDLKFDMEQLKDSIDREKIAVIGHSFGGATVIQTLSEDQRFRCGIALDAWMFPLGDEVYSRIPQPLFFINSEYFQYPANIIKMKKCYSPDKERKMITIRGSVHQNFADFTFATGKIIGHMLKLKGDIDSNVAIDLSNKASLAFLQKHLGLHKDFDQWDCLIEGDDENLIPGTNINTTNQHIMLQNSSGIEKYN
Summary of the method: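 Pooled human plasma was preincubated with compound for 15 min at RT. Substrate solution (2 mM 2-thio-PAF, 52 μM CPM, 2.5 mM NEM in 50 mM HEPES pH 7.4, 150 mM NaCl, 1 mM CHAPS; pre-addition concentrations) was added, and the reaction was quenched with 5% TFA after 3 min. Fluorescence was read at ex 380/em 485 nm and fitted to give pIC50.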

[1] = target: T2, recombinant human Lp-PLA2 (Homo sapiens, UniProt Q13093); test: (1b) hrThioPAF assay, recombinant human Lp-PLA2; format: biochemical; conditions: Examples 266-412 were tested here, one experiment or average of multiple experiments, read-out: rhLp-PLA2 (pIC50) (converted)
T2 sequence (Q13093 22-441): T1 sequence (Q13093 22-441)
Summary of the method: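 Fluorogenic assay: 20 pM rhLp-PLA2 in 50 mM HEPES pH 7.4, 150 mM NaCl, 1 mM CHAPS with 1:3 serially diluted compounds; substrate mix of 40 μM 2-thio-PAF, 40 μM CPM, 400 μM NEM (pre-addition levels). 20 min at 25 °C in the dark; fluorescence ex 380/em 485 nm, pIC50 by curve fitting.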

| SMILES | IC50 (Lp-PLA2 in human plasma) | IC50 [1] |
| --- | --- | --- |
| N[C@@H]1C[C@@H]2Cn3c(cc(OCc4cc(F)c(Oc5ccnc(C(F)(F)F)c5)c(F)c4)nc3=O)N2C1 [Example E387, (7R,8aR)-7-Amino-3-((3,5-difluoro-4-((2-(trifluoromethyl)pyridin-4-yl)oxy)benzyl)oxy)-7,8,8a,9-tetrahydropyrrolo[1′,2′:3,4]imidazo[1,2-c]pyrimidin-1(6H)-one] | ≤ 100 nM | ≤ 10000 nM |
| O=c1nc(OCc2cc(F)c(Oc3ccnc(C(F)(F)F)c3)c(F)c2)cc2n1CC1CNCCN21 (stereo not drawn) [Example E270, 7-((3,5-Difluoro-4-((2-(trifluoromethyl)pyridin-4-yl)oxy)benzyl)oxy)-3,4,11,11a-tetrahydro-1H-pyrazino[1′,2′:3,4] imidazo [1,2-c]pyrimidin-9(2H)-one] | ≤ 100 nM | ≤ 10000 nM |
| N#Cc1cc(COc2cc3n(c(=O)n2)CC2COCCN32)ccc1F (stereo not drawn) [Example E329, 2-Fluoro-5-(((9-oxo-1,3,4,9,11,11a-hexahydropyrimido[6′,1′:2,3]imidazo[5,1-c][1,4]oxazin-7-yl)oxy)methyl)benzonitrile] | ≤ 100 nM | ≤ 10000 nM |
| CN(C)C(=O)N1CCN2c3cc(OCc4ccc(F)c(F)c4)nc(=O)n3CC2C1 (stereo not drawn) [Example E301, 7-((3,4-Difluorobenzyl)oxy)-N,N-dimethyl-9-oxo-3,4,11,11a-tetrahydro-1H-pyrazino[1′,2′:3,4]imidazo[1,2-c]pyrimidine-2(9H)-carboxamide] | ≤ 100 nM | ≤ 10000 nM |
| O=c1nc(OCc2cc(F)c(Oc3ccnc(C(F)(F)F)c3)c(F)c2)cc2n1C[C@H]1C[C@@H](O)CN21 [Example E384, (7R,8aR)-3-((3,5-Difluoro-4-((2-(trifluoromethyl)pyridin-4-yl)oxy)benzyl)oxy)-7-hydroxy-7,8,8a,9-tetrahydropyrrolo[1′,2′:3,4]imidazo[1,2-c]pyrimidin-1(6H)-one] | ≤ 100 nM | ≤ 10000 nM |
| N#Cc1cc(COc2cc3n(c(=O)n2)CC2CS(=O)(=O)CCN32)ccc1F (stereo not drawn) [Example E367, 5-(((2,2-Dioxido-9-oxo-1,3,4,9,11,11a-hexahydropyrimido[6′,1′:2,3]imidazo[5,1-c][1,4]thiazin-7-yl)oxy)methyl)-2-fluorobenzonitrile] | ≤ 100 nM | ≤ 10000 nM |
| CN(C)CC(=O)N1CCN2c3cc(OCc4ccc(F)c(F)c4)nc(=O)n3CC2C1 (stereo not drawn) [Example E346, 7-((3,4-Difluorobenzyl)oxy)-2-(2-(dimethylamino)acetyl)-3,4,11,11a-tetrahydro-1H-pyrazino[1,2′:3,4]imidazo[1,2-c]pyrimidin-9(2H)-one] | ≤ 100 nM | ≤ 10000 nM |
| CCC(=O)N1CCN2c3cc(OCc4ccc(F)c(C#N)c4)nc(=O)n3CC2C1 (stereo not drawn) [Example E289, 2-Fluoro-5-(((9-oxo-2-propionyl-2,3,4,9,11,11a-hexahydro-1H-pyrazino[1′,2′:3,4]imidazo[1,2-c]pyrimidin-7-yl)oxy)methyl)benzonitrile 2,2,2-trifluoroacetate] | ≤ 100 nM | ≤ 10000 nM |
| CC(=O)N1CCC2(CC1)Cn1c(cc(OCc3ccc(F)c(F)c3)nc1=O)N2C(C)=O [Example 408, 1,1-(7-((3,4-difluorobenzyl)oxy)-5-oxo-1H-spiro[imidazo[1,2-c]pyrimidine-2,4′-piperidin]-1,1′(3H,5H)-diyl)diethanone] | ≤ 100 nM | ≤ 10000 nM |
| N#Cc1cc(COc2cc3n(c(=O)n2)CC2CN(CC(=O)O)CCN32)ccc1F (stereo not drawn) [Example E324, 2-(7-((3-Cyano-4-fluorobenzyl)oxy)-9-oxo-3,4,11,11a-tetrahydro-1H-pyrazino[1,2′:3,4]imidazo[1,2-c]pyrimidin-2(9H)-yl)acetic acid, trifluoroacetic acid Salt] | ≤ 100 nM | ≤ 10000 nM |
| N#Cc1cccc(COc2cc3n(c(=O)n2)CC2CNCCN32)c1 (stereo not drawn) [Example E272, 3-(((9-Oxo-2,3,4,9,11,11a-hexahydro-1H-pyrazino[1′,2′:3,4]imidazo [1,2-c]pyrimidin-7-yl)oxy)methyl) benzonitrile] | ≤ 100 nM | ≤ 10000 nM |
| N#Cc1cc(COc2cc3n(c(=O)n2)CC2CN(S(=O)(=O)C4CC4)CCN32)ccc1F (stereo not drawn) [Example E296, 5-(((2-(Cyclopropylsulfonyl)-9-oxo-2,3,4,9,11,11a-hexahydro-1H-pyrazino[1′,2′:3,4]imidazo[1,2-c]pyrimidin-7-yl)oxy)methyl)-2-fluorobenzonitrile 2,2,2-trifluoroacetate] | ≤ 100 nM | ≤ 10000 nM |
| N#Cc1cc(COc2cc3n(c(=O)n2)C[C@@H]2C[C@H](O)CN32)ccc1F [Example E382, 2-Fluoro-5-((((7S,8aS)-7-hydroxy-1-oxo-1,6,7,8,8a,9-hexahydropyrrolo[1′,2′:3,4]imidazo[1,2-c]pyrimidin-3-yl)oxy)methyl)benzonitrile] | ≤ 100 nM | ≤ 10000 nM |
| O=C([C@@H]1CCN1)N1CCN2c3cc(OCc4ccc(F)c(F)c4)nc(=O)n3CC2C1 (stereo partly drawn) [Example E339, 2-((S)-azetidine-2-carbonyl)-7-((3,4-difluorobenzyl)oxy)-3,4,11,11a-tetrahydro-1H-pyrazino[1′,2′:3,4]imidazo[1,2-c]pyrimidin-9(2H)-one] | ≤ 100 nM | ≤ 10000 nM |
| N#Cc1cc(COc2cc3n(c(=O)n2)CC2CN(C(=O)C(F)(F)F)CCN32)ccc1F (stereo not drawn) [Example E323, 2-Fluoro-5-(((9-oxo-2-(2,2,2-trifluoroacetyl)-2,3,4,9,11,11a-hexahydro-1H-pyrazino[1′,2′:3,4]imidazo[1,2-c]pyrimidin-7-yl)oxy)methyl)benzonitrile] | ≤ 100 nM | ≤ 10000 nM |
| O=C1CN2c3cc(OCc4ccc(F)c(F)c4)nc(=O)n3CC2CN1CC(F)(F)F (stereo not drawn) [Example E358, 7-((3,4-Difluorobenzyl)oxy)-2-(2,2,2-trifluoroethyl)-11,11a-dihydro-1Hpyrazino[1′,2′:3,4] imidazo[1,2-c]pyrimidine-3,9(2H,4H)-dione] | ≤ 100 nM | ≤ 10000 nM |
| N#Cc1cc(COc2cc3n(c(=O)n2)CC2CN(CC(F)(F)F)CCN32)ccc1F (stereo not drawn) [Example E322, 2-Fluoro-5-(((9-oxo-2-(2,2,2-trifluoroethyl)-2,3,4,9,11,11a-hexahydro-1H-pyrazino[1′,2′:3,4]imidazo[1,2-c]pyrimidin-7-yl)oxy)methyl)benzonitrile] | ≤ 100 nM | ≤ 10000 nM |
| CN1c2cc(OCc3ccc(F)c(F)c3)nc(=O)n2CC12COC2 [Example 398, 7-((3,4-Difluorobenzyl)oxy)-1-methyl-1H-spiro[imidazo[1,2-c]pyrimidine-2,3′-oxetan]-5(3H)-one] | ≤ 100 nM | ≤ 10000 nM |
| N#Cc1cc(COc2cc3n(c(=O)n2)CC2CNCCN32)ccc1F (stereo not drawn) [Example E266, 2-Fluoro-5-(((9-oxo-2,3,4,9,11,11a-hexahydro-1H-pyrazino[1′,2′:3,4]imidazo[1,2-c]pyrimidin-7-yl)oxy)methyl)benzonitrile] | ≤ 100 nM | ≤ 100 nM |
| N#Cc1cc(COc2cc3n(c(=O)n2)CC2CN(C(=O)C4CCC4)CCN32)ccc1F (stereo not drawn) [Example E302, 5-(((2-(Cyclobutanecarbonyl)-9-oxo-2,3,4,9,11,11a-hexahydro-1H-pyrazino[1′,2′:3,4]imidazo[1,2-c]pyrimidin-7-yl)oxy)methyl)-2-fluorobenzonitrile] | ≤ 100 nM | ≤ 10000 nM |
| O=c1nc(OCc2cc(F)c(Oc3ccnc(C(F)(F)F)c3)c(F)c2)cc2n1CC1CS(=O)(=O)CCN21 (stereo not drawn) [Example E370, 7-((3,5-Difluoro-4-((2-(trifluoromethyl)pyridin-4-yl)oxy)benzyl)oxy)-3,4,11,11a-tetrahydropyrimido[6′,1′:2,3]imidazo[5,1-c][1,4]thiazin-9(1H)-one-2,2-dioxide] | ≤ 100 nM | ≤ 10000 nM |
| O=c1nc(OCc2cc(F)c(Oc3cncc(C(F)(F)F)c3)c(F)c2)cc2n1CC1(CCOCC1)N2 [Example 401, 7-((3,5-Difluoro-4-((5-(trifluoromethyl)pyridin-3-yl)oxy)benzyl)oxy)-2′,3′,5′,6′-tetrahydro-1H-spiro[imidazo[1,2-c]pyrimidine-2,4′-pyran]-5(3H)-one] | ≤ 100 nM | 0.631 nM |
| Cc1ccc(Oc2c(F)cc(COc3cc4n(c(=O)n3)CC3(CCOCC3)N4)cc2F)cn1 [Example 403, 7-((3,5-Difluoro-4-((6-methylpyridin-3-yl)oxy)benzyl)oxy)-2′,3′,5′,6′-tetrahydro-1H-spiro[imidazo[1,2-c]pyrimidine-2,4′-pyran]-5(3H)-one] | ≤ 100 nM | ≤ 10000 nM |
| NC1(C(=O)N2CCN3c4cc(OCc5ccc(F)c(F)c5)nc(=O)n4CC3C2)CCOCC1 (stereo not drawn) [Example E345, 2-(4-Aminotetrahydro-2H-pyran-4-carbonyl)-7-((3,4-difluorobenzyl)oxy)-3,4,11,11a-tetrahydro-1H-pyrazino[1,2′:3,4]imidazo[1,2-c]pyrimidin-9(2H)-one] | ≤ 100 nM | ≤ 10000 nM |
